Source: patent publication US8551984B2, “Aminopyrimidines as SYK inhibitors” (Merck Sharp & Dohme Corp., priority 2009, dated 2013)

Target: rhSYK (Homo sapiens, UniProt P43405)
Assay: biochemical

| SMILES | IC50 |
| --- | --- |
| Cc1cc(Nc2nccc(C)n2)cc(-c2cnc(C3(O)CCC(C(=O)NCC#N)C(C)C3)s2)c1 (stereo not shown) [Example 119-108] | < 100 nM |
| Cc1cc(Nc2nccc(C(F)(F)F)n2)cc(-c2cnc([C@]3(O)CC[C@@H](C(=O)Nc4ccccc4O)CC3)s2)c1 [Example 119-56] | < 100 nM |
| Cc1cc(Nc2nccc(C(C)(C)O)n2)cc(-c2cnc(C3(O)CCC(C(N)=O)C(C)(C)C3)s2)c1 (stereo not shown) [Example 119-127] | < 100 nM |
| Cc1cc(Nc2nccc(C(F)(F)F)n2)cc(-c2cnc([C@]3(O)CC[C@@H](C(=O)NCc4ccc5c(c4)CNC5=O)CC3)s2)c1 [Example 119-99] | < 100 nM |
| COc1ccnc(Nc2cc(C)cc(-c3cnc([C@@]4(O)CC[C@H](C(=O)NCc5cccnc5)C(C)(C)C4)s3)c2)n1 [Example 119-134] | < 100 nM |
| Cc1cc(Nc2ncc(F)c(C)n2)cc(-c2cnc(C3(O)CCC4(CC3)OCCO4)s2)c1 [Example 116B-1] | < 100 nM |
| Cc1cc(Nc2nccc(C(C)(C)C)n2)cc(-c2cnc(C3(O)CCC(C(N)=O)C(C)C3)s2)c1 (stereo not shown) [Example 119-109] | < 100 nM |
| Cc1cc(Nc2nccc(C(F)(F)F)n2)cc(-c2cnc(C3(O)CCC(C(N)=O)C3)s2)c1 (single isomer, unassigned) [Example 119-2] | < 100 nM |
| Cc1cc(Nc2nccc(C(F)(F)F)n2)cc(-c2cnc([C@]3(O)CC[C@@H](C(=O)Nc4ccccn4)CC3)s2)c1 [Example 119-35] | < 100 nM |
| COc1cccc(N2CCN(C(=O)C3CCC(O)(c4ncc(-c5cc(C)cc(Nc6nccc(C(F)(F)F)n6)c5)s4)CC3)CC2)c1 (stereo not shown) [Example 119-139] | < 100 nM |
| Cc1cc(Nc2nccc(C(F)(F)F)n2)cc(-c2cnc([C@]3(O)CC[C@@H](C(=O)N4CCC(O)CC4)CC3)s2)c1 [Example 119-47] | < 100 nM |
| Cc1cc(Nc2nccc(C(F)(F)F)n2)cc(-c2cnc(C3(O)CCC(C(=O)NC4CCC(C(N)=O)CC4)CC3)s2)c1 (stereo not shown) [Example 119-90] | < 100 nM |
| Cc1cc(Nc2nccc(C(F)(F)F)n2)cc(-c2cnc([C@]3(O)CC[C@@H](C(=O)NCc4ccc(C(F)(F)F)cc4)CC3)s2)c1 [Example 119-100] | < 100 nM |
| Cc1cc(Nc2nccc(OC(C)C)n2)cc(-c2cnc(C3(O)CCC(C(N)=O)C(C)C3)s2)c1 (stereo not shown) [Example 119-110] | < 100 nM |
| Cc1cc(Nc2nccc(C)n2)cc(-c2cnc(C3(O)CCC(C(N)=O)C4CCCCC43)s2)c1 (stereo not shown) [Example 117-2] | < 100 nM |
| Cc1cc(Nc2nccc(C(F)(F)F)n2)cc(-c2cnc([C@]3(O)CC[C@@H](C(=O)Nc4ncc[nH]4)CC3)s2)c1 [Example 119-27] | < 100 nM |
| Cc1cc(Nc2nccc(C(F)(F)F)n2)cc(-c2cnc([C@]3(O)CC[C@H](CCC(N)=O)CC3)s2)c1 [Example 117-12] | < 100 nM |
| Cc1cc(Nc2nccc(C(F)(F)F)n2)cc(-c2cnc(C3(O)CCC(C(N)=O)C(C)C3)s2)c1 (single isomer, unassigned) [Example 119-111] | < 100 nM |
| CC1(C)C[C@@](O)(c2ncc(-c3cc(Cl)cc(Nc4nccc(C(F)(F)F)n4)c3)s2)CC[C@@H]1C(N)=O [Example 119-144] | < 100 nM |
| CNC(=O)C1CCC(O)(c2ncc(-c3cc(C)cc(Nc4nccc(C(F)(F)F)n4)c3)s2)CC1 (stereo not shown) [Example 119-15] | < 100 nM |
| Cc1cc(Nc2nccc(C(F)(F)F)n2)cc(-c2cnc([C@]3(O)CC[C@@H](C(=O)NCc4ccc(Cl)cc4)CC3)s2)c1 [Example 119-87] | < 100 nM |
| CCOC(=O)CNC(=O)CCc1ncc(-c2cc(C)cc(Nc3nccc(C(F)(F)F)n3)c2)s1 [Example 117-16] | < 100 nM |
| Cc1cc(Nc2nccc(C(F)(F)F)n2)cc(-c2cnc([C@]3(O)CC[C@@H](C(=O)NCc4ccncc4)CC3)s2)c1 [Example 191-53] | < 100 nM |
| CCC(CO)NC(=O)CCc1ncc(-c2cc(C)cc(Nc3nccc(C(F)(F)F)n3)c2)s1 (stereo not shown) [Example 117-15] | < 100 nM |
| Cc1cc(Nc2nccc(C(F)(F)F)n2)cc(-c2cnc([C@]3(O)CC[C@@H](C(=O)NCc4cccs4)CC3)s2)c1 [Example 119-63] | < 100 nM |
